Patent US20180344702A1, “METHODS FOR TREATING PATIENTS WITH HEMATOLOGIC MALIGNANCIES” (Aptose Biosciences, Inc., priority 2017, published 2018)

Tests used:
FLT3(N841I) = target: T1, FLT3(N841I) (Homo sapiens, UniProt P36888, N841I); experiment: Binding constant (Kd), competition binding with qPCR readout
T1 construct: made in house; host or cells: E. coli BL21-derived host (T7 phage) or HEK-293

BJAB = experiment: Cytotoxicity, MTS cell viability; assay type: cell-based; details: Homo sapiens, 72 h, GCB-DLBCL, 3 days MTS
Experimental: (§1) Cells were seeded in a 96 well plate and treated with either vehicle (DMSO) or compound 7 at 10 different concentrations for 3 days at 37° C. and 5% CO2. Cell viability was assessed using CellTiter 96 AQueous one solution (MTS Promega Cat#G3581), and IC50 values calculated using GraphPad Prism 7 software.

DOHH2 = experiment: Cytotoxicity, MTS cell viability; assay type: cell-based; details: Homo sapiens, DOHH-2, 72 h, FL, 3 days MTS
Experimental: as §1

L1236 = experiment: Cytotoxicity, MTS cell viability; assay type: cell-based; details: L-1236, 72 h, HL, 3 days MTS
Experimental: as §1

MHH-Call4 = experiment: Cytotoxicity, MTS cell viability; assay type: cell-based; details: MHHCALL4, 72 h, B-ALL, 3 days MTS
Experimental: as §1

OCI-LY3 = experiment: Cytotoxicity, MTS cell viability; assay type: cell-based; details: Homo sapiens, 72 h, ABC-DLBCL, 3 days MTS
Experimental: as §1

SU-DHL2 = experiment: Cytotoxicity, MTS cell viability; assay type: cell-based; details: Homo sapiens, SU-DHL-2, 72 h, ABC-DLBCL, 3 days MTS
Experimental: as §1

U2932 = experiment: Cytotoxicity, MTS cell viability; assay type: cell-based; details: Homo sapiens, 72 h, ABC-DLBCL, 3 days MTS
Experimental: as §1

[1] = tested on: Ba/F3-ITD + D835H (FLT3-ITD + D835H); experiment: Antiproliferative activity (Table 6); assay type: cell-based, Murin; details: 72 h
[2] = tested on: MOLM13 (FLT3-ITD, t(9:11)); experiment: Antiproliferative activity (Table 6); assay type: cell-based; details: Homo sapiens, MOLM-13, 72 h
MOLM-13 cells = experiment: Cell-cycle analysis (flow cytometry); assay type: cell-based, human; details: dose-dependent
Experimental: Cell-cycle analysis: Cells were treated with vehicle, DMSO or Compound 7 and were stained with PI and EdU, and then analyzed by flow cytometry to determine the phases of cell cycle.

SMILES: Cc1cnc(-c2ccc(-c3ccc(NC(=O)Nc4c(F)cc(F)cc4F)cc3F)c3c2C(=O)NC3)[nH]1 [Compound 7, 1-{3-fluoro-4-[7-(5-methyl-1H-imidazol-2-yl)-1-oxo-2,3-dihydro-1H-isoindol-4-yl]-phenyl}-3-(2,4,6-trifluorophenyl)urea]
- Kd (FLT3(N841I)): 0.76 nM
- IC50 (BJAB): 882 nM
- IC50 (DOHH2): 2.94 nM
- IC50 (L1236): 7820 nM
- IC50 (MHH-Call4): 27.8 nM
- IC50 (OCI-LY3): 830 nM
- IC50 (SU-DHL2): 744 nM
- IC50 (U2932): 632 nM
- IC50 [1]: 6.74 nM
- IC50 [2]: 0.82 nM
- G0/G1 cell-cycle arrest (MOLM-13 cells): induce G0/G1 cell-cycle arrest
